# Measurements published in US20250177351A1, “ISOINDOLINE COMPOSITIONS AND METHODS FOR TREATING NEURODEGENERATIVE DISEASE” (Cognition Therapeutics, Inc., priority 2022, published 2025).
# Tests used:
# CSF proteins = test: Phase 1b/2a trial: CSF protein expression by LC/MSMS; format: in vivo, human
# Method: COG0102 clinical trial: This trial (ClinicalTrials.gov NCT02907567) was a randomized, double-blind, placebo-controlled clinical trial in mild to moderate Alzheimer's patients (MMSE 18-26) (See FIG. 1 for clinical trial design). The trial was conducted at six sites in Australia. Patients were randomized into placebo (n=5) or CT1812-treated groups: 90 mg (n=4), 280 mg (n=5) or 560 mg (n=5) and treated once daily for 28 days. Clinical chemistry was done at Sydpath (Sydney, AU). Pharmacokinetics were done at CPR Pharma Services (Adelaide, AU). Cerebrospinal fluid samples were taken at screening and day 21-28 of treatment and aliquoted. Plasma samples were taken at screening or Day 1 (one sample) and day 14-28, then spun down to separate plasma and aliquoted. One set of CSF samples was analyzed for Alzheimer's disease biomarkers; protein measurements (Aβ42, Aβ40, total tau, tau phosphorylated at threonine 181 (phosphorylated tau), NFL and neurogranin) were performed using commercially available ELISA assays from Fujirebio according to the manufacturer's instructions (INNOTEST β-AMYLOID(1-42), INNOTEST β-AMYLOID(1-40), INNOTEST hTau Ag, INNOTEST PHOSPHO-TAU(181P), Uman Diagnostics NFL assay). Neurogranin was measured with a sandwich ELISA method using antibodies Ng2 and Ng22 developed at the University of Gotteborg (Kvartsberg et al. 2015). Identical aliquots of CSF, and plasma were analyzed for protein expression changes via LC/MSMS at Caprion (see below).
# LC MSMS biomarker discovery: Matched screening and day 28 plasma and CSF samples were analyzed by LC/MSMS at Caprion Biosciences Inc. Plasma was depleted of high and medium abundance proteins using a commercial immunoaffinity column, IgY14-Supermix (Sigma). CSF was depleted of only 14 high abundance proteins using MARS-14 (Agilent). All samples were digested with trypsin and plasma samples were fractionated by strong cation exchange chromatography (3 fractions). Both CSF and plasma samples were analyzed using a NanoAcquity UPLC coupled to a Q Exactive MS. […] The 12 most intense peaks per survey scan with charge states 2-8 fragmented and scanned with a mass range from 200 to 2000 m/z at a resolution of 17,500. Raw spectrometer data files for each LC-MS run were aligned independently using Elucidator software (Rosetta Biosoftware). The MS/MS spectra were matched to corresponding peptide sequences found in the Uniprot Human protein database (January 2017) using Mascot software, allowing for up to 2 missed cleavages, a peptide tolerance of 20 ppm, and an MS/MS tolerance of 0.05 Da. Outlier detection was performed by determining the average log-intensity of all isotope groups (IG) over injection order for all samples. Samples with an average value greater than 2 standard deviations from the mean were flagged for investigation. Following data transformation and normalization, expression analysis of the identified isotope groups was performed and the statistical significance of each comparison was assessed with a parametric, linear mixed model (LMM) and a non-parametric Wilcoxon ranked test (ranked p-values). Expression analysis was also performed at the peptide and protein levels, which used the same methodology as above, but applied to peptide/protein intensities, derived by rolling-up the corresponding isotope group intensities. Isotope groups not detected in at least half of the samples in either of the two groups being compared were not used for the roll-up.
# Heat map analysis: The difference in protein abundance between day 28 and baseline for each sample was normalized for graphical comparison by converting to z-score. First, the mean and standard deviation (SD) of day 28—baseline values were calculated across all paired samples for each protein. Then, for each patient's paired sample fold change, the difference from the mean was determined and divided by the SD to derive the z-score. […]
# sigma-2 receptor complex = molecular target: T1, sigma-2 receptor complex (Mus musculus, UniProt Q8VD00); test: Projected receptor occupancy from human CSF concentrations, based on mouse Alzheimer's disease models; format: in vivo
# T1 construct: from tissue; host or cells: brain, in vivo (projection from human CSF concentrations; occupancy itself determined in transgenic mouse brain)
# T1 sequence (Q8VD00 1-176): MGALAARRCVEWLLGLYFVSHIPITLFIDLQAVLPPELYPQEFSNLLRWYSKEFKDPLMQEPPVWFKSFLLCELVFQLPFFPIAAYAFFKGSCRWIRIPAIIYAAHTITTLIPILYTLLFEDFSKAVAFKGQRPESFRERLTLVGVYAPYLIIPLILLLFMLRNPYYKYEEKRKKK
# Method: Horizontal lines indicate projected receptor occupancy based on concentration and receptor occupancy determined in pre-clinical mouse Alzheimer's disease models.
# At the 840 mg dose, CSF levels reached those associated with 98% receptor occupancy.
smiles,measurement,setting,value
CC(C)(C)Oc1cc(CCC(C)(C)N2Cc3ccc(S(C)(=O)=O)cc3C2)ccc1O [CT1812],"Synaptotagmin-1 expression in CSF, decrease in CT1812-treated vs. placebo","CSF proteins; AD patients, 28 days",63%
same,number of CSF proteins changed differentially vs placebo,"CSF proteins; AD patients, 28 days, p<0.05",30
same,FC (Treated) AFM,"CSF proteins; CSF, 28 days vs screening",0.94
same,FC (Treated) ANGPTL2,"CSF proteins; CSF, 28 days vs screening",0.80
same,FC (Treated) CNTN1,"CSF proteins; CSF, 28 days vs screening",0.97
same,FC (Treated) EFNB1,"CSF proteins; CSF, 28 days vs screening",0.97
same,FC (Treated) EPHA4,"CSF proteins; CSF, 28 days vs screening",0.94
same,FC (Treated) MBL2,"CSF proteins; CSF, 28 days vs screening",0.75
same,FC (Treated) NPPC,"CSF proteins; CSF, 28 days vs screening",0.90
same,FC (Treated) P4HB,"CSF proteins; CSF, 28 days vs screening",1.10
same,FC (Treated) RBP4,"CSF proteins; CSF, 28 days vs screening",0.82
same,FC (Treated) ROBO1,"CSF proteins; CSF, 28 days vs screening",0.96
same,FC (Treated) SEMA3F,"CSF proteins; CSF, 28 days vs screening",1.40
same,FC (Treated) SERPINA4,"CSF proteins; CSF, 28 days vs screening",0.88
same,FC (Treated) SMPDL3B,"CSF proteins; CSF, 28 days vs screening",0.97
same,FC (Treated) SYT1,"CSF proteins; CSF, 28 days vs screening",0.78
same,FC (Treated) TPII,"CSF proteins; CSF, 28 days vs screening",0.90
same,FC (Treated) YWHAB,"CSF proteins; CSF, 28 days vs screening",0.90
same,FC (Treated vs. Placebo) AFM,"CSF proteins; CSF, 28 days, p-value 0.002, rank p-value 0.003",0.84
same,FC (Treated vs. Placebo) SYT1,"CSF proteins; CSF, 28 days, p-value 0.011, rank p-value 0.011",0.63
same,FC (Treated vs. Placebo) RBP4,"CSF proteins; CSF, 28 days, p-value 0.018, rank p-value 0.011",0.81
same,FC (Treated vs. Placebo) MBL2,"CSF proteins; CSF, 28 days, p-value 0.020, rank p-value 0.006, FC>10 may be artifact",>10
same,FC (Treated vs. Placebo) TNC,"CSF proteins; CSF, 28 days, p-value 0.029, rank p-value 0.011",0.91
same,FC (Treated vs. Placebo) EFNB1,"CSF proteins; CSF, 28 days, p-value 0.029, rank p-value 0.034",0.93
same,FC (Treated vs. Placebo) EPHA4,"CSF proteins; CSF, 28 days, p-value 0.035, rank p-value 0.076",0.93
same,FC (Treated vs. Placebo) MDGA2,"CSF proteins; CSF, 28 days, p-value 0.036, rank p-value 0.106",0.71
same,FC (Treated vs. Placebo) YWHAB,"CSF proteins; CSF, 28 days, p-value 0.038, rank p-value 0.148",0.81
same,FC (Treated vs. Placebo) ROBO1,"CSF proteins; CSF, 28 days, p-value 0.042, rank p-value 0.106",0.82
same,FC (Treated vs. Placebo) TPII,"CSF proteins; CSF, 28 days, p-value 0.044, rank p-value 0.076",0.87
same,FC (Treated vs. Placebo) CD14,"CSF proteins; CSF, 28 days, p-value 0.046, rank p-value 0.034",1.20
same,FC (Treated vs. Placebo) SERPINA4,"CSF proteins; CSF, 28 days, p-value 0.047, rank p-value 0.020",0.79
same,FC (Treated vs. Placebo) CNTN1,"CSF proteins; CSF, 28 days, p-value 0.048, rank p-value 0.076",0.81
same,FC (Treated vs. Placebo) ANGPTL2,"CSF proteins; CSF, 28 days, p-value 0.050, rank p-value 0.148",0.69
same,FC (Treated vs. Placebo) NPPC,"CSF proteins; CSF, 28 days, p-value 0.060, rank p-value 0.020",0.91
same,receptor occupancy at 560 mg,"sigma-2 receptor complex; 560 mg dose, read-out: receptor occupancy in transgenic mouse brain associated with human CSF level",95%
same,receptor occupancy in mouse brain equivalent to average human CSF concentrations,"sigma-2 receptor complex; 560 mg-840 mg dose range, 1.5 hr post-dose",97-98%
same,receptor occupancy at 840 mg,"sigma-2 receptor complex; 840 mg dose, read-out: receptor occupancy associated with human CSF level",98%
